These results are taken from paper PMC10304174, “Development of Zeise’s Salt Derivatives Bearing Substituted Acetylsalicylic Acid Substructures as Cytotoxic COX Inhibitors” (Pharmaceutics, 2023).

Data set [1] in a line: Complex stability by capillary electrophoresis (decrease of initial complex over time). Type of data set: physicochemical. Particulars: MeOH/water (50/50, v/v), 1 mM, 37 °C, CE. As for the experimental part: The analysis was performed as previously described. A 50 mM sodium tetraborate solution (pH = 9.3, adjusted with 1 M NaOH), served as background electrolyte (BGE). Washing of novel capillaries consecutively with 1 M NaOH (45 min), water (45 min), and BGE (45 min) was performed. The hydrodynamic injection mode was utilized to introduce the samples into the capillary (50 mbar for 2 s). The capillary was kept at 25 °C, and the autosampler was thermostatted at 37 °C with an external water bath. For separation, the voltage was set to 20 kV, and the detection was carried out at the wavelength of 230 nm. Before each measurement, flushing of the capillary with 0.1 M NaOH (3 min), water (3 min), and BGE (5 min) took place. The samples were dissolved in methanol (MeOH) and further diluted in equal parts by volume with water to give a final concentration of 1 mM. Triple determinations were performed, and the half-lives (τ½) are presented as mean ± SD of ≥3 independent experiments. Samples, washing solutions, and buffers were filtered through a membrane with 0.22 µm porosity and degassed by ultrasonication before use. To simplify the reaction dynamics from a possible second-order to pseudo-first-order, one of two reactants must be present in great excess (>10 to 25-fold). If this condition is fulfilled, logarithmic plotting of the gradual decrease in the other reactant’s concentration (or increase in the concentration of a product, respectively) against the time yields a straight line, and half-lives can be calculated.
An already-established method was used to study the stability of the X-ASA-Prop-PtCl3 and X-ASA-But-PtCl3 complexes. The degradation products were separated by capillary electrophoresis using a fused-silica capillary ([…] × 75 µm, effective length: 56 cm, capillary temperature: 25 °C) and a 50 mM tetraborate buffer (pH = 9.3) as BGE. For separation, the voltage was set to 20 kV and the compounds were detected at 230 nm. Benzoic acid was used as an internal standard. Exemplary electropherograms of each complex can be found in the Supplementary Material (Figures S1–S24).
The complexes (1 mM) were dissolved in MeOH or MeOH/water (50/50, v/v) and stored at 37 °C. The decrease in the initial amount of complex was monitored time-dependently by CE, and the half-life (τ½) was calculated (Table 2).

The next data set addresses T1, COX-1 (Ovis aries, UniProt P05979).
T1 construct: purchased Cayman Chemicals
T1 sequence (P05979 25-600): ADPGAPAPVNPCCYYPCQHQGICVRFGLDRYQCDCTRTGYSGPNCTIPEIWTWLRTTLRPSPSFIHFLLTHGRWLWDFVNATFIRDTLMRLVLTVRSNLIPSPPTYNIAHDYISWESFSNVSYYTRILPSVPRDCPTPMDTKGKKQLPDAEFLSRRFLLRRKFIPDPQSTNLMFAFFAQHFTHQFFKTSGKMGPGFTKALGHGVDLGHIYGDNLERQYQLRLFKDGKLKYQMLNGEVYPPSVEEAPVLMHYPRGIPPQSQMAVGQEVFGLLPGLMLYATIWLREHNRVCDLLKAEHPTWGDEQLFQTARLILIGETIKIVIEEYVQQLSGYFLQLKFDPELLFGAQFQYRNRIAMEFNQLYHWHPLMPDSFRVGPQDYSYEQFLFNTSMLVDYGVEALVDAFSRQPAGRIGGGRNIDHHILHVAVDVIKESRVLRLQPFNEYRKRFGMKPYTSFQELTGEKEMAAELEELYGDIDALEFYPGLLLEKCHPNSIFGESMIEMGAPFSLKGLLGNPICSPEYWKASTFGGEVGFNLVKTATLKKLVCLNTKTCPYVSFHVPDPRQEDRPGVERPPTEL
The experiment in a line: COX Inhibitor Screening Assay (EIA) on isolated COX-1 isoenzyme. The format is biochemical, ovine. Particulars: for Inhibition of COX-1: 1 µM, incubation 10 min. As for the experimental part:
(§1) The incubation of the respective complexes with the isoenzymes was exactly 10 min. The values of COX inhibition were calculated as the mean of duplicates and shown as the mean ± SD of ≥2 independent experiments.

Data set [2] relates to PGE2 synthesis in HT-29 cells. Description: Inhibition of the PGE2 synthesis in HT-29 cells (PGE2 EIA). Type of data set: cell-based. Particulars: 10 µM, 24 h at 37 °C, then 50 µM arachidonic acid 1 h. As for the experimental part:
Exponentially growing HT-29 cells were seeded into 24-well plates at a concentration of 5 × 10^4 cells in 500 µL of cell culture medium per well. […] In the next step, the substrate arachidonic acid (Sigma Aldrich, St. Louis, MO, USA) at a concentration of 50 µM was added. After 1 h, the COX-catalyzed PGE2 production was stopped by removing the supernatant from the cells, which was analyzed by EIA (Prostaglandin E2 Kit—Monoclonal, Cayman Chemicals, Ann Arbor, MI, USA) according to the manufacturer’s protocol.
HT-29 cells express both isoenzymes at high levels, allowing COX-1/2 interaction to be studied using an antibody-based PGE2 assay, which quantifies the PGE2 released by the cells into the cell culture medium. All Zeise’s salt derivatives were tested at a concentration of 10 µM (Figure 4).

Data set [3] has as its system HT-29 cells. Description: Crystal violet assay, antiproliferative effects in HT-29 cells. Type of data set: cell-based. The following applies: HT-29 (COX-1/2-positive), 72 h. As for the experimental part:
(§2) In order to investigate the cytotoxic effects in MCF-7 and HT-29 cells, an already published crystal violet assay was used. The cells (HT-29: 3 × 10^3 cells per well in 100 µL of medium; MCF-7: 2 × 10^3 cells per well in 100 µL of medium) were seeded in their exponential growth phase in completed DMEM into 96-well microtiter plates in quadruples. […] Cells were then fixed with a solution of 1% (v/v) glutaric dialdehyde in PBS. In order to determine the cell biomass, the chromatin of the attached cells was stained with crystal violet, and the bound dye was extracted with EtOH (70%). The absorbance was measured at 590 nm. Mean values ± SD of ≥2 independent experiments were calculated, and the activity of the complexes was expressed as the cell mass of the vehicle-treated control, which was set to 100%.
(§3) The compounds were investigated regarding their cytotoxicity (in vitro) employing an already published crystal violet assay. It is based on the quantification of the cell biomass of living cells by staining the chromatin. In order to evaluate the possible influence of COX inhibition on cell growth, Zeise’s salt derivatives were investigated comparatively in HT-29 and MCF-7 cell lines.

In data set [4] the test system is MCF-7 cells. Description: Crystal violet assay, antiproliferative effects in MCF-7 cells. The following applies: MCF-7 (COX-negative), 72 h. The format is cell-based. As for the experimental part:
as §2, §3

Data set [5] has as its system MCF-7 cells. Details: method as in PMID 29848978. The following applies: COX-negative MCF-7 breast cancer cells; cited from earlier work.
Data set [6] relates to HT-29 cells. Set-up: method as in PMID 29848978. Particulars: COX-1/2-positive HT-29 colon carcinoma cells; cited from earlier work.
The target in a further data set is T2, COX-2 (Homo sapiens, UniProt P35354).
T2 construct: purchased Cayman Chemicals
T2 sequence (P35354 18-604): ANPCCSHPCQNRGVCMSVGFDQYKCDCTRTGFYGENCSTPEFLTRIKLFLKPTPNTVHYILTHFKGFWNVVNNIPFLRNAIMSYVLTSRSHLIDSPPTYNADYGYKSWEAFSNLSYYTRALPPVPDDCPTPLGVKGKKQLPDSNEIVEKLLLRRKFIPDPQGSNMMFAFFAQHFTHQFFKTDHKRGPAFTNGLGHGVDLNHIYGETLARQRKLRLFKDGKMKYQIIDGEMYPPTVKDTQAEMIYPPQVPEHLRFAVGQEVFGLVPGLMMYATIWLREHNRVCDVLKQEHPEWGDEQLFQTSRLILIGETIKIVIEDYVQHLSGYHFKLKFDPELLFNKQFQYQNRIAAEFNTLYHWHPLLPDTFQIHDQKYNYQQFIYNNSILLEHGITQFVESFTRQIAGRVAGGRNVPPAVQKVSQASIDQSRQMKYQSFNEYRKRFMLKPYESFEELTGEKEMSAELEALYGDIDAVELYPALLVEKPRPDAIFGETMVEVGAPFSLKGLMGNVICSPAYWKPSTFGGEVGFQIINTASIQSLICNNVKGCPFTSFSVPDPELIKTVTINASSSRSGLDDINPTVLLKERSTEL
The experiment in a line: COX Inhibitor Screening Assay (EIA) on isolated COX-2 isoenzyme. Type of data set: biochemical. The following applies: for Inhibition of COX-2: 1 µM, incubation 10 min. As for the experimental part: as §1

For the compound `CC(=O)Oc1ccc(Cl)cc1C(=O)OC[CH]1[CH2][Pt-]1([Cl])([Cl])[Cl].[K+]` (stereo not drawn) [5-Cl-ASA-Prop-PtCl3, Potassium trichlorido[η^2-(prop-2-en-1-yl)-2-acetoxy-5-chlorobenzoate]platinate(II)], in data set [1], the “Half-life (τ½)” value stood at 35.2 ± 0.9 min. Besides, the COX-1 selectivity on COX-1 (from inhibition at 1 µM, COX-1 over COX-2) was determined as 1.7 fold. Also, the “Inhibition of PGE2 synthesis” value in data set [2] is given as 84.0%. Moreover, the IC50 in the data set on HT-29 cells [3] turned out to be 53.4 ± 0.7 µM; in the data set with MCF-7 cells [4], 52.8 ± 9.2 µM.

With `CC(=O)Oc1ccccc1C(=O)OC[CH]1[CH2][Pt-]1([Cl])([Cl])[Cl].[K+]` (stereo not drawn) [ASA-Prop-PtCl3], the “Growth inhibition in MCF-7 cells” value in the data set on MCF-7 cells [5] is “nearly inactive”. Further, the “Half-life (τ½)” value in data set [1] stood at 35.7 min. The “Growth inhibition in HT-29 cells” value in the data set on HT-29 cells [6] is on record as “low growth inhibitory potential”.

In the case of `CC(=O)Oc1ccc(C)cc1C(=O)OCC[CH]1[CH2][Pt-]1([Cl])([Cl])[Cl].[K+]` (stereo not drawn) [5-CH3-ASA-But-PtCl3, Potassium trichlorido[η^2-(but-3-en-1-yl)-2-acetoxy-5-methylbenzoate]platinate(II)], the “Half-life (τ½)” value in data set [1] stood at 3140 ± 258 min. Also, on COX-1, the “Inhibition of COX-1” value is recorded as 60.4%. Also, the figures for the IC50 in the data set with HT-29 cells [3] and in the data set on MCF-7 cells [4] were 16.2 ± 2.5 µM and 32.5 ± 4.4 µM, respectively. At COX-2, the “Inhibition of COX-2” value worked out at 45.0%.

`CC(=O)Oc1cc(C)ccc1C(=O)OC[CH]1[CH2][Pt-]1([Cl])([Cl])[Cl].[K+]` (stereo not drawn) [4-CH3-ASA-Prop-PtCl3, Potassium trichlorido[η^2-(prop-2-en-1-yl)-2-acetoxy-4-methylbenzoate]platinate(II)]: the “Half-life (τ½)” value in data set [1] was determined as 40.4 ± 1.1 min. Besides, the “Inhibition of PGE2 synthesis” value in data set [2] is on record as 88.4%. Also, the IC50 with HT-29 cells [3] was 24.2 ± 2.4 µM; in the data set with MCF-7 cells [4], 62.9 ± 1.6 µM.

Turning to `CC(=O)Oc1c(Cl)cccc1C(=O)OC[CH]1[CH2][Pt-]1([Cl])([Cl])[Cl].[K+]` (stereo not drawn) [3-Cl-ASA-Prop-PtCl3, Potassium trichlorido[η^2-(prop-2-en-1-yl)-2-acetoxy-3-chlorobenzoate]platinate(II)], the “Half-life (τ½)” value in data set [1] was 31.4 ± 1.7 min. The “Inhibition of COX-1” value on COX-1 amounted to 51.7%. In addition, the IC50 in the data set with HT-29 cells [3] was 89.7 ± 25.7 µM; in the data set on MCF-7 cells [4], 56.3 ± 5.8 µM. The “Inhibition of COX-2” value on COX-2 stood at 58.8%.

Turning to `CC(=O)Oc1cc(Cl)ccc1C(=O)OCC[CH]1[CH2][Pt-]1([Cl])([Cl])[Cl].[K+]` (stereo not drawn) [4-Cl-ASA-But-PtCl3, Potassium trichlorido[η^2-(but-3-en-1-yl)-2-acetoxy-4-chlorobenzoate]platinate(II)], the “Half-life (τ½)” value in data set [1] was 2370 ± 144 min. In addition, at COX-1, the “Inhibition of COX-1” value stood at 47.9%. The half-inhibitory concentration (IC50) in the data set on HT-29 cells [3] was found to be 35.2 ± 9.3 µM; in the data set with MCF-7 cells [4], 31.7 ± 8.7 µM. For the same compound, on COX-2, the “Inhibition of COX-2” value was determined as 40.0%.

Regarding `CC(=O)Oc1c(F)cccc1C(=O)OC[CH]1[CH2][Pt-]1([Cl])([Cl])[Cl].[K+]` (stereo not drawn) [3-F-ASA-Prop-PtCl3, Potassium trichlorido[η^2-(prop-2-en-1-yl)-2-acetoxy-3-fluorobenzoate]platinate(II)], the “Half-life (τ½)” value in data set [1] is given as 30.5 ± 1.4 min. Also, the IC50 in the data set with HT-29 cells [3] worked out at 86.9 ± 3.9 µM; in the data set with MCF-7 cells [4], 85.2 ± 21.8 µM. On COX-2, the “Inhibition of COX-2” value amounted to 20.7%.

For the compound `CC(=O)Oc1ccccc1C(=O)OCC[CH]1[CH2][Pt-]1([Cl])([Cl])[Cl].[K+]` (stereo not drawn) [ASA-But-PtCl3], the “Growth inhibition in MCF-7 cells” value with MCF-7 cells [5] is “nearly inactive”. In addition, the “Half-life (τ½)” value in data set [1] was 4180 min. The “Growth inhibition in HT-29 cells” value in the data set with HT-29 cells [6] is “low growth inhibitory potential”.

Consider `CC(=O)Oc1ccc(C)cc1C(=O)OC[CH]1[CH2][Pt-]1([Cl])([Cl])[Cl].[K+]` (stereo not drawn) [5-CH3-ASA-Prop-PtCl3, Potassium trichlorido[η^2-(prop-2-en-1-yl)-2-acetoxy-5-methylbenzoate]platinate(II)], for which the “Half-life (τ½)” value in data set [1] turned out to be 36.7 ± 1.1 min. Also, in data set [2], the “Inhibition of PGE2 synthesis” value is 82.4%. For the same compound, the IC50 in the data set on HT-29 cells [3] came out at 21.9 ± 4.6 µM; with MCF-7 cells [4], 70.2 ± 2.8 µM.

As for `CC(=O)Oc1cc(Cl)ccc1C(=O)OC[CH]1[CH2][Pt-]1([Cl])([Cl])[Cl].[K+]` (stereo not drawn) [4-Cl-ASA-Prop-PtCl3, Potassium trichlorido[η^2-(prop-2-en-1-yl)-2-acetoxy-4-chlorobenzoate]platinate(II)], the “Half-life (τ½)” value in data set [1] stood at 32.7 ± 1.8 min. Further, the IC50 in the data set on HT-29 cells [3] was determined as 89.8 ± 23.9 µM; with MCF-7 cells [4] it was 70.7 ± 3.6 µM. Also, the COX-2 selectivity on COX-2 (from inhibition at 1 µM, COX-2 over COX-1) is reported as 1.5 fold.

One may read the IC50 as the concentration at which inhibition is half-maximal. The low end stands for greater potency in that assay, the high end for weaker potency in that assay.
